Laboratory results published in PubChem BioAssay AID1845198 (Molecular Pharmacology Branch, DTP, NCI, 2023).

Tested on: 425362-245-T-J1 tumor spheroids, viability % test/control
Test: Anticancer human tumor 425362-245-T-J1 patient-derived melanoma cell line growth inhibition
Details: spheroids with HUVEC and MSC; for IC50: curve of first compound; for viability, T/C: stronger effect = lower value
In short: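 Single agents and combinations were tested on spheroids built from tumor cells plus HUVEC and hMSC, at half-log dilutions starting at or near clinical Cmax, else 10 microM; final DMSO 0.25% (v/v).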

[1] = second compound 1 µM, first compound 0.0316 µM
[2] = second compound 1 µM, first compound 0.1 µM
[3] = second compound 1 µM, first compound 0.316 µM
[4] = second compound 1 µM, first compound 1 µM
[5] = second compound 1 µM, first compound 3.16 µM
[6] = second compound 1 µM, first compound 10 µM
[7] = second compound 3.16 µM, first compound 0.0316 µM
[8] = second compound 3.16 µM, first compound 0.1 µM
[9] = second compound 3.16 µM, first compound 0.316 µM
[10] = second compound 3.16 µM, first compound 1 µM
[11] = second compound 3.16 µM, first compound 3.16 µM
[12] = second compound 3.16 µM, first compound 10 µM
[13] = second compound 10 µM, first compound 0.0316 µM
[14] = second compound 10 µM, first compound 0.1 µM
[15] = second compound 10 µM, first compound 0.316 µM
[16] = second compound 10 µM, first compound 1 µM
[17] = second compound 10 µM, first compound 3.16 µM
[18] = second compound 10 µM, first compound 10 µM
[19] = second compound 31.6 µM, first compound 0.0316 µM
[20] = second compound 31.6 µM, first compound 0.1 µM
[21] = second compound 31.6 µM, first compound 0.316 µM
[22] = second compound 31.6 µM, first compound 1 µM
[23] = second compound 31.6 µM, first compound 3.16 µM
[24] = second compound 31.6 µM, first compound 10 µM
[25] = second compound 100 µM, first compound 0.0316 µM
[26] = second compound 100 µM, first compound 0.1 µM
[27] = second compound 100 µM, first compound 0.316 µM
[28] = second compound 100 µM, first compound 1 µM
[29] = second compound 100 µM, first compound 3.16 µM
[30] = second compound 100 µM, first compound 10 µM
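Also: spheroids exposed to agents for 7 days.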

Row | Structure (SMILES) | IC50 (second compound 1 µM) [µM] | IC50 (second compound 3.16 µM) [µM] | IC50 (second compound 10 µM) [µM] | IC50 (second compound 31.6 µM) [µM] | IC50 (second compound 100 µM) [µM] | viability, T/C [1] [%] | viability, T/C [2] [%] | viability, T/C [3] [%] | viability, T/C [4] [%] | viability, T/C [5] [%] | viability, T/C [6] [%] | viability, T/C [7] [%] | viability, T/C [8] [%] | viability, T/C [9] [%] | viability, T/C [10] [%] | viability, T/C [11] [%] | viability, T/C [12] [%] | viability, T/C [13] [%] | viability, T/C [14] [%] | viability, T/C [15] [%] | also measured
1 | COc1cc(C)[nH]c(=O)c1CN1CCc2c(Cl)cc(C(OC)C3COC3)c(Cl)c2C1=O (stereo not given) + Cn1nnc2c(C(N)=O)ncn2c1=O | > 10 | > 10 | > 10 | > 10 | > 10 | 87 | 96.6 | 95.9 | 92.1 | 89.8 | 84.7 | 114 | 103 | 110 | 105 | 101 | 92.4 | 104 | 99.9 | 114 | viability, T/C [16]: 114%; viability, T/C [17]: 95.8%; viability, T/C [18]: 97.6%; viability, T/C [19]: 113%; viability, T/C [20]: 111%; viability, T/C [21]: 100%; viability, T/C [22]: 107%; viability, T/C [23]: 89%; viability, T/C [24]: 93.5%; viability, T/C [25]: 94.4%; viability, T/C [26]: 90.4%; viability, T/C [27]: 90.3%; viability, T/C [28]: 89.7%; viability, T/C [29]: 88.3%; viability, T/C [30]: 71.8%
2 | Cc1cc(C)c(CNC(=O)c2cc(-c3ccc(CN4CCOCC4)cc3)cc3c2cnn3C2CCCC2)c(=O)[nH]1 + Cn1nnc2c(C(N)=O)ncn2c1=O | 2.97 | 3.22 | 4.59 | 3.07 | 1.47 | 90.2 | 100 | 90.8 | 80.7 | 48.4 | 11.2 | 110 | 107 | 105 | 91.7 | 50.5 | 14.6 | 102 | 106 | 114 | viability, T/C [16]: 85.4%; viability, T/C [17]: 69.6%; viability, T/C [18]: 13.1%; viability, T/C [19]: 104%; viability, T/C [20]: 116%; viability, T/C [21]: 100%; viability, T/C [22]: 85.4%; viability, T/C [23]: 49.3%; viability, T/C [24]: 10.9%; viability, T/C [25]: 94.6%; viability, T/C [26]: 91.4%; viability, T/C [27]: 87.4%; viability, T/C [28]: 59.6%; viability, T/C [29]: 28.6%; viability, T/C [30]: 6.56%
3 | [2H]c1nc(C)nc([2H])c1-c1cc(NC[C@@H](C)c2cccc3c(C(=O)NC)ccnc23)ncn1 + Cn1nnc2c(C(N)=O)ncn2c1=O | > 10 | > 10 | > 10 | > 10 | > 10 | 88.2 | 96.8 | 95.9 | 71.2 | 93.4 | 76.9 | 108 | 91.8 | 102 | 105 | 109 | 94.4 | 99.2 | 114 | 110 | viability, T/C [16]: 107%; viability, T/C [17]: 112%; viability, T/C [18]: 84.2%; viability, T/C [19]: 105%; viability, T/C [20]: 113%; viability, T/C [21]: 104%; viability, T/C [22]: 110%; viability, T/C [23]: 101%; viability, T/C [24]: 85.5%; viability, T/C [25]: 82.7%; viability, T/C [26]: 91.3%; viability, T/C [27]: 87.4%; viability, T/C [28]: 86.5%; viability, T/C [29]: 88.2%; viability, T/C [30]: 83.5%
